Patent US20030119800A1, “Bone anabolic compounds and methods of use” (priority 2001, published 2003)

Assays:
[1] = test system: ER (lamb uterus cytosol, human ERα, human ERβ); assay: Relative binding affinity by competition with 3H E2 (FIG. 10)
Procedure: The proteins were absorbed to hydroxylapatite (HAP) and the free ligand removed by washing (Carlson et al, 1997). Results are expressed as percent specific binding. […] Symbols indicate means±SD of two separate experiments in which each point was determined in duplicate.
Statistical analysis: ANOVA was used to detect treatment effects. Specifically, in FIGS. 1-6 & 8, Dunnett's test (Kuehl et al, 2000) was used to detect differences between various treatments as compared to the vehicle control group. To detect differences in the efficacy of the various compounds shown in FIGS. 7A & B, the dose response curves were compared using tests for linear trend (Kuehl, 2002). Bonferroni's method was used to perform all pairwise comparisons of treatment groups in FIGS. 7E & F, FIGS. 11A, B, C, FIG. 12A, FIG. 13, FIGS. 14A and B and FIG. 9. Because the normality assumption was not satisfied for the data in FIGS. 3C & D and FIG. 12C, Wilcoxon's rank sum test (Steel et al, 1997) was used to perform all pairwise comparisons of treatment groups using a Bonferroni correction. In FIG. 14D, a two-way ANOVA was used to detect treatment and dose effects and tests for linear trend were subsequently employed to determine significant effects of each compound. In FIG. 10, logistic regression was used to estimate EC50, which was then used to determine the relative binding affinity. […]

MCF-7 cells = assay: MCF-7 cell proliferation assay (3H-thymidine uptake); assay type: cell-based; conditions: 10^−12-10^−7 M for 48 h
Excerpt: (§1) Wet uterine (A) or seminal vesicle weight (B) of female and male mice described in FIG. 11. […] Note the following morphologic differences in the uteri of OVX- and OVX+4-estren-3α,17β-diol-treated mice as compared to uteri from sham-operated and OVX+E2-treated mice: thin and atrophic columnar epithelium; compact stroma; decreased number of glands; decreased nucleus to cytoplasmic ratio in the columnar epithelial, endometrial stroma, and myometrial cells; and absence of mitotic activity. (D) Proliferation of MCF-7 cells was determined by ^3H-thymidine uptake.
MCF-7 cell proliferation assay: MCF-7 cells were serum-starved in the presence of 10^−8 M ICI 182,780 for 96 h, after which the ICI-containing medium was replaced with medium-containing vehicle or 10^−12-10^−7 M of the indicated steroids for an additional 48 h. At that time, proliferation was assayed by measuring ^3H-Thymidine uptake as previously described (Bellido et al, 1997).

[2] = test system: OVX or ORX Swiss Webster mice; assay: Gonadectomized (OVX or ORX) Swiss Webster mice with 60-day slow release pellets: bone and reproductive tissues; assay type: in vivo, mouse
Procedure: Osteoblastic cells (A) were isolated from calvaria of neonatal female or male mice, the sex of which was determined by Southern blot analysis of liver DNA with a Y chromosome specific cDNA probe; and cultured as previously described. The ability of the indicated steroids to protect against etoposide induced apoptosis was determined as in FIG. 1D, lower panel. (B) Osteoclasts were generated in bone marrow cultures from adult female or male mice, and then treated with vehicle or the indicated concentrations of steroids for 24 hours at which point the number of cells undergoing apoptosis was determined. Representative results from 1 of 4 females and 1 of 4 males examined are shown. Each point represents the mean of triplicate determinations±SD. *p<0.05 vs. vehicle, by ANOVA. (C & D) Eight-month old Swiss Webster mice (n=8-10 per group) were sham-operated, ovariectomized (OVX) or orchidectomized (ORX). […] BMD and wet uterine or seminal vesicle weight was determined six weeks later. Bars indicate means±SD. *p<0.05 vs OVX or ORX.
FIG. 9 illustrates the equivalence of the skeletal actions of estrogens and androgens in female and male mice. […] Six weeks later, osteoblast apoptosis in histologic sections of the vertebrae (A), osteoblastogenesis and osteoclastogenesis in ex vivo bone marrow cultures (B and C), and serum osteocalcin concentration (D) were determined. Bars indicate means±SD, *p<0.05 vs OVX or ORX.
Global, spine and hindlimb BMD was determined at both 4 and 6 weeks later in the experiment with the 8 month old females, and at 6 weeks only in the experiments with the 6 month old females and males (A, B and C). The 6 week BMD data in females (B) represent pooled values from the two experiments with the 6- and the 8-month old mice.
Longitudinal undecalcified sections of the distal femur are shown in (B). […] Osteoblast apoptosis in sections of L1-L4 vertebrae from females (8 month old) and males (C).
Histomorphometric analysis of L1-L4 vertebrae from 6 month old females (A-F) and pooled serum osteocalcin levels from the 6 and 8 month old females (G). […] The ANGELS compounds described herein are useful for maintaining and/or increasing bone mass and/or strength and/or density in mammals. Mammals, preferably humans, in need of such compounds can include those suffering from such conditions as female osteoporosis (post menopausal), male osteoporosis, glucocorticoid-induced osteoporosis, immobilization and aging-related osteoporosis, idiopathic or juvenile osteoporosis, transplantation-related osteoporosis, and alveolar ridge bone loss. In addition, the compounds described herein are particularly useful for administration to subjects that are unable or unwilling to tolerate therapies that have a masculinizing or feminizing effect. For example, subjects such as breast cancer patients (especially those with bone metastasis on gonadotropin […] hormone (GnRH) or ovariectomized), prostrate cancer patients (especially those on GnRH/castration therapy), and myeloma/lymphoma patients are frequently poor candidates for treatment with estrogen or androgens because of the risk of a recurrence of the underlying condition, e.g., cancer.
as §1
For these studies, mature Swiss Webster mice (8 month old), n=8-10 per group, were sham-operated or gonadectomized (GNDX). […]

[3] = histomorphometry of lumbar vertebrae L1-L4, OVX females

SMILES: C[C@]12CC[C@H]3[C@@H](CCC4=C[C@H](O)CC[C@@H]43)[C@@H]1CC[C@@H]2O [4-estren-3α,17β-diol]
- binding affinity for the ER compared to E2 [1]: lower binding affinity
- MCF-7 cell proliferation (MCF-7 cells): did not stimulate
- body weight ([2]; 7.6 mg per 60 day slow release pellet): no effect
- effect on the bone marrow cavity ([2]; 4-estren-3α,17β-diol 7.6 mg pellet, E2 pharmacologic dose 100× the replacement dose): no adverse effects
- longitudinal undecalcified sections of the distal femur ([2]; 4-estren-3α,17β-diol at 300× ERT versus vehicle or E2 1× ERT, E2 at 100× ERT): increased cortical and trabecular width
- bone compression strength in the vertebrae, male mice ([2]; L5, ORX): equally effective
- bone compression strength in the vertebrae, female mice ([2]; L5, compared to mice receiving E2): greater than in mice receiving E2
- BMD in ORX mice compared to DHT replacement ([2]; ORX males, 7.6 mg pellet): at least as effective if not superior
- BMD values in the spine versus the untreated ORX group ([2]; ORX males, 6 weeks): significantly higher
- seminal vesicle weight ([2]; ORX males, pellets E2 0.025 mg or 4-estren-3α,17β-diol 7.6 mg): no effect
- histologic analysis of the uterus ([2]; OVX females): lack of an effect
- wet uterine weight ([2]; OVX females, pellets DHT 10 mg or 4-estren-3α,17β-diol 7.6 mg): no effect
- BMD change in the hindlimb ([2]; OVX mice, compared to OVX+E2 replacement and to estrogen replete sham controls): greater BMD change
- global and spinal BMD in females ([2]; OVX, 7.6 mg pellet versus E2 replacement): as effective, if not superior to estradiol
- osteoclast number ([2]; as compared to the OVX group): suppressed
- rate of bone formation ([2]; as compared to the OVX group): suppressed
- prevalence of osteoblast and osteocyte apoptosis in the lumbar vertebrae ([2]; gonadectomized females or males): prevented the increased prevalence
- cortical width, greater compared to OVX mice treated with E2 [2, 3]: 27.8%
- number of osteoblasts on the trabeculae, greater than in the E2-treated group [2, 3]: 319%
- osteoid perimeter, increase versus E2-treated group [2, 3]: 270%
- trabecular width, greater compared to OVX mice treated with E2 [2, 3]: 33.9%
- serum osteocalcin ([2]; two separate experiments, compared to OVX+E2 and to estrogen replete sham controls): significantly higher
